These results are taken from patent US20260062422A1 (Halda Therapeutics OpCo, Inc., priority 2022, published 2026).

For orientation: GI50 means the concentration giving 50% growth inhibition. High values mean less potent growth inhibition, low ones more potent growth inhibition.

Where only a bound is given, the exact number is not on record here.

One test concerns T47D cells. As to the kind of experiment: Cellular growth inhibition assay for T47D cells, CellTiter-Glo. The class given is cell-based, human. Conditions: Homo sapiens, T47D, 72 h, 72 hours treatment, CellTiter-Glo 2.0 cell viability. The method, boiled down: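 Growth inhibition as GI50, fitted with four parameters to CellTiter-Glo luminescence after 72 h of compound exposure (0.5% DMSO). Cells were T47D, grown in insulin-supplemented (0.2 units/mL) DMEM with 10% FBS and treated one day post-seeding.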
For orientation: ATP-based viability assays read luminescence as a measure of living cells.

Test [1] deals with T-Rex 293 cell line SC3 cells having increased expression of androgen receptor protein due to exposure to doxycycline. The test can be described thus: Cellular growth inhibition, T-Rex 293 SC3 cells with doxycycline (androgen receptor induced), CellTiter-Glo. Particulars: T-Rex 293 SC3 cells with 10 ng/mL doxycycline (increased androgen receptor expression). The format is cell-based. The method, boiled down:
(§1)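 Growth inhibition was compared in a T-Rex 293 clone with and without doxycycline (10 ng/mL)-driven androgen receptor overexpression. Compounds were applied for 72 h in hormone-depleted serum, and GI50 came from four-parameter curves of CellTiter-Glo signal.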

Test [2] deals with T-Rex 293 cell line SC3 cells lacking increased expression of androgen receptor protein. As to the kind of experiment: Cellular growth inhibition, T-Rex 293 SC3 cells without doxycycline, CellTiter-Glo. Conditions: T-Rex 293 SC3 cells not exposed to doxycycline, CellTiter-Glo 2.0. The format is cell-based. The essentials: as §1
A further test deals with VCaP cells. As to the kind of experiment: Cellular growth inhibition assay for VCaP cells, CellTiter-Glo. Particulars: Homo sapiens, VCaP, 72 h, 72 hours treatment, CellTiter-Glo 2.0. The class given is cell-based, human. The essentials:
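GI50 values come from four-parameter curve fits of luminescence data normalized to a zero baseline. Compound, in medium with 0.5% DMSO, was added one day after plating and left for 72 h before CellTiter-Glo 2.0 addition.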

Turning to `Cc1sc2c(c1C)C(c1ccc(N3CC(OC4CCN(c5ncc(C(=O)N[C@H]6C(C)(C)[C@H](Oc7ccc(C#N)c(Cl)c7)C6(C)C)cn5)CC4)C3)cc1)=N[C@@H](Cc1ncco1)c1nnc(C)n1-2` [Compound I-206, N-[3-(3-chloro-4-cyano-phenoxy)-2,2,4,4-tetramethyl-cyclobutyl]-2-[4-[1-[4-[(9S)-4,5,13-trimethyl-9-(oxazol-2-ylmethyl)-3-thia-1,8,11,12-tetrazatricyclo[8.3.0.02,6]trideca-2(6),4,7,10,12-pentaen-7-yl]phenyl]azetidin-3-yl]oxy-1-piperidyl]pyrimidine-5-carboxamide], the GI50 (in the test with T47D cells; in test [1] (72 h); in test [2] (72 h); with VCaP cells) was less than 500 nM each time.
For the compound `Cc1sc2c(c1C)C(c1ccc(N3CC4(CCN(c5ncc(C(=O)N[C@H]6C(C)(C)[C@H](Oc7ccc(C#N)c(Cl)c7)C6(C)C)cn5)CC4)C3)cc1)=NC(Cc1ncco1)c1nnc(C)n1-2` (stereo partly drawn) [Compound I-207], the GI50 in the test with T47D cells is 500 to 1500 nM; in test [1] (72 hours) it was less than 500 nM; in test [2] (72 hours) it was greater than 3000 nM; in the test on VCaP cells, 500 to 1500 nM.
With `Cc1sc2c(c1C)C(c1ccc(N3CCC(CC4CCN(c5ncc(C(=O)N[C@H]6C(C)(C)[C@H](Oc7ccc(C#N)c(Cl)c7)C6(C)C)cn5)CC4)CC3)cc1)=N[C@@H](Cc1ncco1)c1nnc(C)n1-2` [Compound I-210], the 50% growth inhibitory concentration (GI50) was greater than 3000 nM in the test on T47D cells, 500 to 1500 nM in test [1] (72 h), greater than 3000 nM in test [2] (72 h) and greater than 3000 nM with VCaP cells.
On to `Cc1sc2c(c1C)C(c1ccc(N3CCC(CC4CCN(c5ncc(C(=O)N[C@H]6C(C)(C)[C@H](Oc7ccc(C#N)c(Cl)c7)C6(C)C)cn5)CC4)CC3)cc1)=N[C@H](Cc1ncco1)c1nnc(C)n1-2` [Compound I-211], for which the GI50 was less than 500 nM with T47D cells, less than 500 nM in test [1] (72 h), 500 to 1500 nM in test [2] (72 h) and less than 500 nM with VCaP cells.
`Cc1sc2c(c1C)C(c1ccc(CCCOC3CCN(c4ncc(C(=O)N[C@H]5C(C)(C)[C@H](Oc6ccc(C#N)c(Cl)c6)C5(C)C)cn4)CC3)cc1)=N[C@@H](Cc1ccccn1)c1nnc(C)n1-2` [Compound I-212, N-[3-(3-chloro-4-cyano-phenoxy)-2,2,4,4-tetramethyl-cyclobutyl]-2-[4-[3-[4-[(9S)-4,5,13-trimethyl-9-(2-pyridylmethyl)-3-thia-1,8,11,12-tetrazatricyclo[8.3.0.02,6]trideca-2(6),4,7,10,12-pentaen-7-yl]phenyl]propoxy]-1-piperidyl]pyrimidine-5-carboxamide]: the concentration for 50% growth inhibition (GI50) is less than 500 nM in the test on T47D cells, less than 500 nM in test [1] (72 h), greater than 3000 nM in test [2] (72 h) and less than 500 nM in the test on VCaP cells.
For `Cc1sc2c(c1C)C(c1ccc(CCCOC3CCN(c4ncc(C(=O)N[C@H]5C(C)(C)[C@H](Oc6ccc(C#N)c(Cl)c6)C5(C)C)cn4)CC3)cc1)=N[C@H](Cc1ccccn1)c1nnc(C)n1-2` [Compound I-213], the GI50 in the test with T47D cells was less than 500 nM; in test [1] (72 h), less than 500 nM; in test [2] (72 h) it was greater than 3000 nM; in the test on VCaP cells it was less than 500 nM.
With `Cc1sc2c(c1C)C(c1ccc(CCCOC3CCN(c4ncc(C(=O)N[C@H]5C(C)(C)[C@H](Oc6ccc(C#N)c(Cl)c6)C5(C)C)cn4)CC3)cc1)=N[C@@H](Cc1cccnc1)c1nnc(C)n1-2` [Compound I-214], the GI50 (in the test with T47D cells; in test [1] (72 h); in test [2] (72 h); in the test with VCaP cells) was less than 500 nM in each case.
In the case of `Cc1sc2c(c1C)C(c1ccc(CCCOC3CCN(c4ncc(C(=O)N[C@H]5C(C)(C)[C@H](Oc6ccc(C#N)c(Cl)c6)C5(C)C)cn4)CC3)cc1)=N[C@@H](Cc1ccncc1)c1nnc(C)n1-2` [Compound I-215], the concentration for 50% growth inhibition (GI50) (in the test with T47D cells; in test [1] (72 h); in test [2] (72 h); with VCaP cells) was less than 500 nM throughout.
Regarding `Cc1sc2c(c1C)C(c1ccc(CCCOC3CCN(c4ncc(C(=O)N[C@H]5C(C)(C)[C@H](Oc6ccc(C#N)c(Cl)c6)C5(C)C)cn4)CC3)cc1)=N[C@H](Cc1ccncc1)c1nnc(C)n1-2` [Compound I-216], the GI50 with T47D cells is greater than 3000 nM; in test [1] (72 h) it was less than 500 nM; in test [2] (72 h) it was greater than 3000 nM; in the test on VCaP cells, less than 500 nM.
For the compound `Cc1sc2c(c1C)C(c1ccc(CCCOC3CCN(c4ncc(C(=O)N[C@H]5C(C)(C)[C@H](Oc6ccc(C#N)c(Cl)c6)C5(C)C)cn4)CC3)cc1)=N[C@H](Cc1cccnc1)c1nnc(C)n1-2` [Compound I-217], the concentration for 50% growth inhibition (GI50) in the test on T47D cells is less than 500 nM; in test [1] (72 h) it was less than 500 nM; in test [2] (72 h), greater than 3000 nM; with VCaP cells it was less than 500 nM.
For `Cc1sc2c(c1C)C(c1ccc(OC3CC4(CCN(c5ncc(C(=O)N[C@H]6C(C)(C)[C@H](Oc7ccc(C#N)c(Cl)c7)C6(C)C)cn5)CC4)C3)cc1)=N[C@@H](Cc1nnn(C)n1)c1nnc(C)n1-2` [Compound I-218, N-[3-(3-chloro-4-cyano-phenoxy)-2,2,4,4-tetramethyl-cyclobutyl]-2-[2-[4-[(9S)-4,5,13-trimethyl-9-[(2-methyltetrazol-5-yl)methyl]-3-thia-1,8,11,12-tetrazatricyclo[8.3.0.02,6]trideca-2(6),4,7,10,12-pentaen-7-yl]phenoxy]-7-azaspiro[3.5]nonan-7-yl]pyrimidine-5-carboxamide], the GI50 with T47D cells was less than 500 nM; in test [1] (72 h), less than 500 nM; in test [2] (72 h), greater than 3000 nM; in the test on VCaP cells, less than 500 nM.
Take `Cc1sc2c(c1C)C(c1ccc(OC3CC4(CCN(c5ncc(C(=O)N[C@H]6C(C)(C)[C@H](Oc7ccc(C#N)c(Cl)c7)C6(C)C)cn5)CC4)C3)cc1)=N[C@H](Cc1nnn(C)n1)c1nnc(C)n1-2` [Compound I-219]: the concentration for 50% growth inhibition (GI50) is greater than 3000 nM in the test on T47D cells, less than 500 nM in test [1] (72 h), greater than 3000 nM in test [2] (72 h) and greater than 3000 nM with VCaP cells.
Consider `Cc1noc2c1-c1ccccc1C(c1ccc(OC3CC4(C3)CN(c3ncc(C(=O)N[C@H]5C(C)(C)[C@H](Oc6ccc(C#N)c(Cl)c6)C5(C)C)cn3)CCO4)cc1)=N[C@H]2Cc1ncco1` [Compound I-221, N-[3-(3-chloro-4-cyano-phenoxy)-2,2,4,4-tetramethyl-cyclobutyl]-2-[2-[4-[(4S)-1-methyl-4-(oxazol-2-ylmethyl)-4H-isoxazolo[5,4-d][2]benzazepin-6-yl]phenoxy]-5-oxa-8-azaspiro[3.5]nonan-8-yl]pyrimidine-5-carboxamide], for which the GI50 in the test with T47D cells was greater than 3000 nM; in test [1] (72 h), less than 500 nM; in test [2] (72 h) it was greater than 3000 nM; with VCaP cells, greater than 3000 nM.
Turning to `Cc1noc2c1-c1ccccc1C(c1ccc(OC3CC4(CCN(c5ncc(C(=O)N[C@H]6C(C)(C)[C@H](Oc7ccc(C#N)c(Cl)c7)C6(C)C)cn5)CC4)C3)cc1)=N[C@H]2Cc1ncco1` [Compound I-222], the GI50 is greater than 3000 nM with T47D cells, less than 500 nM in test [1] (72 h), greater than 3000 nM in test [2] (72 h) and less than 500 nM in the test on VCaP cells.
For the compound `Cc1noc2c1-c1ccccc1C(c1ccc(O[C@H]3C[C@]4(CN(c5ncc(C(=O)N[C@H]6C(C)(C)[C@H](Oc7ccc(C#N)c(Cl)c7)C6(C)C)cn5)CCO4)C3)cc1)=N[C@H]2Cc1ncco1` [Compound I-223], the GI50 is greater than 3000 nM in the test with T47D cells, less than 500 nM in test [1] (72 h), greater than 3000 nM in test [2] (72 h) and greater than 3000 nM with VCaP cells.
With `Cc1noc2c1-c1ccccc1C(c1ccc(O[C@H]3C[C@]4(CN(c5ncc(C(=O)N[C@H]6C(C)(C)[C@H](Oc7ccc(C#N)c(Cl)c7)C6(C)C)cn5)CCO4)C3)cc1)=N[C@@H]2Cc1ncco1` [Compound I-224], the 50% growth inhibitory concentration (GI50) in the test on T47D cells is greater than 3000 nM; in test [1] (72 h), less than 500 nM; in test [2] (72 h) it was greater than 3000 nM; in the test with VCaP cells it was less than 500 nM.
On to `Cc1sc2c(c1C)C(c1ccc(C=C3CC4(CCCN(c5ncc(C(=O)N[C@H]6C(C)(C)[C@H](Oc7ccc(C#N)c(Cl)c7)C6(C)C)cn5)C4)C3)cc1)=N[C@@H](Cc1ncco1)c1nnc(C)n1-2` [Compound I-225, N-[3-(3-chloro-4-cyano-phenoxy)-2,2,4,4-tetramethyl-cyclobutyl]-2-[2-[[4-[(9S)-4,5,13-trimethyl-9-(oxazol-2-ylmethyl)-3-thia-1,8,11,12-tetrazatricyclo[8.3.0.02,6]trideca-2(6),4,7,10,12-pentaen-7-yl]phenyl]methylene]-6-azaspiro[3.5]nonan-6-yl]pyrimidine-5-carboxamide], for which the GI50 in the test on T47D cells was 500 to 1500 nM; in test [1] (72 h), less than 500 nM; in test [2] (72 h) it was 500 to 1500 nM; in the test with VCaP cells it was 1500 to 3000 nM.
For the compound `Cc1sc2c(c1C)C(c1ccc(OC3CC4(CCN(c5ncc(C(=O)N[C@H]6C(C)(C)[C@H](Oc7ccc(C#N)c(Cl)c7)C6(C)C)cn5)CC4)C3)cc1)=N[C@@H](CC#N)c1nnc(C)n1-2` [Compound I-229, N-[3-(3-chloro-4-cyano-phenoxy)-2,2,4,4-tetramethyl-cyclobutyl]-2-[2-[4-[(9S)-9-(cyanomethyl)-4,5,13-trimethyl-3-thia-1,8,11,12-tetrazatricyclo[8.3.0.02,6]trideca-2(6),4,7,10,12-pentaen-7-yl]phenoxy]-7-azaspiro [3.5]nonan-7-yl]pyrimidine-5-carboxamide], the GI50 with T47D cells was greater than 3000 nM; in test [1] (72 h), less than 500 nM; in test [2] (72 h), greater than 3000 nM; with VCaP cells, less than 500 nM.
